Tests used:
Type in all cases: in vivo
Setaria faberi (SETFA) [1] = experiment: Post-emergence herbicidal glasshouse test (Table B1); details: evaluated after 13 days
In short: (§1)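 Spraying at 500 g/h unless indicated occurs either one day after sowing (pre-emergence) or after 8 days of cultivation (post-emergence). Percentage damage is then assessed after 13 days and binned as 5=80-100%, 4=60-79%, 3=40-59%, 2=20-39%, 1=0-19%.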

[2] = system: Amaranthus retoflexus (AMARE); experiment: as above; details: evaluated after 13 days
In short: as §1

[3] = system: Echinochloa crus-galh (ECHCG); experiment: as above; details: evaluated after 13 days
In short: as §1

[4] = system: Ipomoea hederacea (IPOHE); experiment: as above; details: evaluated after 13 days
In short: as §1

Setaria faberi (SETFA) [5] = experiment: Pre-emergence herbicidal glasshouse test (Table B1); details: evaluated after 13 days
In short: as §1

[6] = system: Amaranthus retoflexus (AMARE); experiment: as above; details: evaluated after 13 days
In short: as §1

[7] = system: Abutilon theophrasti (ABUTH); experiment: as above; details: evaluated after 13 days
In short: as §1

[8] = system: Echinochloa crus-galh (ECHCG); experiment: as above; details: evaluated after 13 days
In short: as §1

[9] = system: Ipomoea hederacea (IPOHE); experiment: as above; details: evaluated after 13 days
In short: as §1

[10] = system: ECHCG (Echinochloa crus-galli); experiment: Comparative test, PRE application (Table B2); details: evaluated after 14 days
Protocol: (§2) TABLE B2—COMPARATIVE TEST
(§3) Seeds of test species were sown in standard soil in pots. After cultivation for one day under controlled conditions in a glasshouse (at 24/16° C., day/night; 14 hours light; 65% humidity), the plants were sprayed with an aqueous spray solution derived from the formulation of the technical active ingredient in 0.6 ml acetone and 45 ml formulation solution containing 10.6% Emulsogen EL (Registry number 61791-12-6), 42.2% N-methyl pyrrolidone, 42.2% dipropylene glycol monomethyl ether (CAS RN 34590-94-8) and 0.2% X-77 (CAS RN 11097-66-8). The test plants were then grown in a glasshouse under controlled conditions in a glasshouse (at 24/16° C., day/night; 14 hours light; 65% humidity) and watered twice daily. After 14 days, the test was evaluated (100=total damage to plant; 0=no damage to plant).
(§4) Test species: ABUTH (Abutilon theophrasti); BRO′I′L (Bromus tectorum); ECHCG (Echinochloa crus-galli); SINAR (Sinapis arvensis).

[11] = system: ABUTH (Abutilon theophrasti); experiment: Comparative test, PRE application (Table B2); details: evaluated after 14 days
Protocol: as §2, §3, §4

BROTE (Bromus tectorum) = experiment: Comparative test, PRE application (Table B2); details: evaluated after 14 days
Protocol: as §2, §3, §4

SINAR (Sinapis arvensis) = experiment: Comparative test, PRE application (Table B2); details: evaluated after 14 days
Protocol: as §2, §3, §4

[12] = system: Abutilon theophrasti (ABUTH); experiment: Post-emergence herbicidal glasshouse test (Table B1); details: evaluated after 13 days
In short: as §1

Structure (SMILES) | POST Application SETFA, percentage damage on five-point scale (Setaria faberi (SETFA) [1]; applied at 125 g/ha) | POST Application AMARE, percentage damage on five-point scale ([2]; applied at 125 g/ha) | POST Application ECHCG, percentage damage on five-point scale ([3]; applied at 125 g/ha) | POST Application IPOHE, percentage damage on five-point scale ([4]; applied at 125 g/ha) | PRE Application SETFA, percentage damage on five-point scale (Setaria faberi (SETFA) [5]; applied at 125 g/ha) | PRE Application AMARE, percentage damage on five-point scale ([6]; applied at 125 g/ha) | PRE Application ABUTH, percentage damage on five-point scale ([7]; applied at 125 g/ha) | PRE Application ECHCG, percentage damage on five-point scale ([8]; applied at 125 g/ha) | PRE Application IPOHE, percentage damage on five-point scale ([9]; applied at 125 g/ha) | POST Application SETFA, percentage damage on five-point scale (Setaria faberi (SETFA) [1]; applied at 500 g/h) | POST Application AMARE, percentage damage on five-point scale ([2]; applied at 500 g/h) | POST Application ABUTH, percentage damage on five-point scale ([12]; applied at 500 g/h) | POST Application ECHCG, percentage damage on five-point scale ([3]; applied at 500 g/h) | POST Application IPOHE, percentage damage on five-point scale ([4]; applied at 500 g/h) | PRE Application SETFA, percentage damage on five-point scale (Setaria faberi (SETFA) [5]; applied at 500 g/h) | PRE Application AMARE, percentage damage on five-point scale ([6]; applied at 500 g/h) | PRE Application ABUTH, percentage damage on five-point scale ([7]; applied at 500 g/h) | PRE Application ECHCG, percentage damage on five-point scale ([8]; applied at 500 g/h) | PRE Application IPOHE, percentage damage on five-point scale ([9]; applied) | POST Application ABUTH, percentage damage on five-point scale ([12]; applied at 125 g/ha) | also measured
CCC(=O)Nc1c(OC(F)(F)F)ccc(C(=O)Nc2nnnn2C)c1Cl [Compound 1.007, 2-chloro-N-(1-methyltetrazol-5-yl)-3-(propanoylamino)-4-(trifluoromethoxy)benzamide] | 5 (5=80-100%) | 5 (5=80-100%) | 5 (5=80-100%) | 4 (4=60-79%) | 5 (5=80-100%) | 5 (5=80-100%) | 5 (5=80-100%) | 5 (5=80-100%) | 5 (5=80-100%) | – | – | – | – | – | – | – | – | – | – | – | damage to plant ECHCG (100=total damage to plant; 0=no damage to plant) ([10]; 30 g/ha): 20; damage to plant ECHCG (100=total damage to plant; 0=no damage to plant) ([10]; 130 g/ha): 70; damage to plant ECHCG (100=total damage to plant; 0=no damage to plant) ([10]; 250 g/ha): 90; damage to plant ABUTH (100=total damage to plant; 0=no damage to plant) ([11]; 30 g/ha): 0; damage to plant ABUTH (100=total damage to plant; 0=no damage to plant) ([11]; 130 g/ha): 60; damage to plant ABUTH (100=total damage to plant; 0=no damage to plant) ([11]; 250 g/ha): 90; damage to plant BROTE (100=total damage to plant; 0=no damage to plant) (BROTE (Bromus tectorum); 30 g/ha): 0; damage to plant BROTE (100=total damage to plant; 0=no damage to plant) (BROTE (Bromus tectorum); 130 g/ha): 0; damage to plant BROTE (100=total damage to plant; 0=no damage to plant) (BROTE (Bromus tectorum); 250 g/ha): 20; damage to plant SINAR (100=total damage to plant; 0=no damage to plant) (SINAR (Sinapis arvensis); 30 g/ha): 10; damage to plant SINAR (100=total damage to plant; 0=no damage to plant) (SINAR (Sinapis arvensis); 130 g/ha): 60; damage to plant SINAR (100=total damage to plant; 0=no damage to plant) (SINAR (Sinapis arvensis); 250 g/ha): 100
CNc1c(OC(F)(F)F)ccc(C(=O)Nc2nnnn2C)c1Cl [Compound 1.005] | – | – | – | – | – | – | – | – | – | 5 (5=80-100%) | 5 (5=80-100%) | 5 (5=80-100%) | 5 (5=80-100%) | 5 (5=80-100%) | 5 (5=80-100%) | 5 (5=80-100%) | 5 (5=80-100%) | 5 (5=80-100%) | 5 (5=80-100%) | – | –
CC(C)C(=O)Nc1c(OC(F)(F)F)ccc(C(=O)Nc2nnnn2C)c1Cl [Compound 1.124] | – | – | – | – | – | – | – | – | – | 5 (5=80-100%) | 5 (5=80-100%) | 5 (5=80-100%) | 5 (5=80-100%) | 5 (5=80-100%) | 4 (4=60-79%) | 5 (5=80-100%) | 4 (4=60-79%) | 5 (5=80-100%) | 1 (1=0-19%) | – | –
Cn1nnnc1NC(=O)c1ccc(OC(F)F)c(NC(=O)c2ccc(F)cc2)c1Cl [Compound 1.099] | 3 (3=40-59%) | 4 (4=60-79%) | 4 (4=60-79%) | 4 (4=60-79%) | 1 (1=0-19%) | 5 (5=80-100%) | 4 (4=60-79%) | 1 (1=0-19%) | 3 (3=40-59%) | – | – | – | – | – | – | – | – | – | – | 4 (4=60-79%) | –
Cn1nnnc1NC(=O)c1ccc(OCC(F)(F)F)c(NC(=O)C2CC2)c1Cl [Compound 1.017] | – | – | – | – | – | – | – | – | – | 5 (5=80-100%) | 5 (5=80-100%) | 4 (4=60-79%) | 5 (5=80-100%) | 5 (5=80-100%) | 5 (5=80-100%) | 5 (5=80-100%) | 5 (5=80-100%) | 5 (5=80-100%) | 5 (5=80-100%) | – | –
Cn1nnnc1NC(=O)c1ccc(OC(F)F)c(NC(=O)CC2CC2)c1Cl [Compound 1.036] | 5 (5=80-100%) | 5 (5=80-100%) | 5 (5=80-100%) | 4 (4=60-79%) | 5 (5=80-100%) | 5 (5=80-100%) | 5 (5=80-100%) | 5 (5=80-100%) | 4 (4=60-79%) | – | – | – | – | – | – | – | – | – | – | 5 (5=80-100%) | –
COc1ccc(C(=O)Nc2nnnn2C)c(Cl)c1NC(=O)C(C)F (stereo not drawn) [Compound 1.028, 2-chloro-3-(2-fluoropropanoylamino)-4-methoxy-N-(1-methyltetrazol-5-yl)benzamide] | – | – | – | – | – | – | – | – | – | 4 (4=60-79%) | 5 (5=80-100%) | 5 (5=80-100%) | 3 (3=40-59%) | 4 (4=60-79%) | 3 (3=40-59%) | 5 (5=80-100%) | 5 (5=80-100%) | 4 (4=60-79%) | 3 (3=40-59%) | – | –
CC(F)C(=O)Nc1c(OCC(F)(F)F)ccc(C(=O)Nc2nnnn2C)c1Cl (stereo not drawn) [Compound 1.016, 2-chloro-3-(2-fluoropropanoylamino)-N-(1-methyltetrazol-5-yl)-4-(2,2,2-trifluoroethoxy)benzamide] | – | – | – | – | – | – | – | – | – | 5 (5=80-100%) | 5 (5=80-100%) | 5 (5=80-100%) | 5 (5=80-100%) | 5 (5=80-100%) | 5 (5=80-100%) | 5 (5=80-100%) | 5 (5=80-100%) | 5 (5=80-100%) | 5 (5=80-100%) | – | –
Cn1nnnc1NC(=O)c1ccc(OC(F)F)c(NC(=O)c2ncccc2F)c1Cl [Compound 1.100] | 4 (4=60-79%) | 4 (4=60-79%) | 4 (4=60-79%) | 4 (4=60-79%) | 3 (3=40-59%) | 5 (5=80-100%) | 5 (5=80-100%) | 1 (1=0-19%) | 2 (2=20-39%) | – | – | – | – | – | – | – | – | – | – | 4 (4=60-79%) | –
CCN(C(=O)C(C)F)c1c(OC(F)F)ccc(C(=O)Nc2nnnn2C)c1Cl (stereo not drawn) [Compound 1.026] | 4 (4=60-79%) | 4 (4=60-79%) | 5 (5=80-100%) | 4 (4=60-79%) | 5 (5=80-100%) | 5 (5=80-100%) | 5 (5=80-100%) | 5 (5=80-100%) | 4 (4=60-79%) | – | – | – | – | – | – | – | – | – | – | 4 (4=60-79%) | –
